Experimental data published in patent US6737383B1, “Herbicidal oxadiazolidines” (priority 1999, dated 2004).

Columns and labels:
morningglory = assay: Test A morningglory; format: in vivo, Ipomoea spp.; details: 0 to 10 scale where 0 is no effect and 10 is complete control
Description: Seeds of barnyardgrass (Echinochloa crus-galli), crabgrass (Digitaria spp.), morningglory (Ipomoea spp.), and velvetleaf (Abutilon theophrasti) were planted into a sandy loam soil and treated preemergence by soil drench with test chemicals formulated in a non-phytotoxic solvent mixture which includes a surfactant At the same time, these crop and weed species were also treated postemergence sprayed to runoff, with test chemicals formulated in the same manner.
Plants ranged in height from two to eighteen cm and were in the one to two leaf stage for the postemergence treatment. Treated plants and untreated controls were maintained in a greenhouse for approximately eleven days, after which all treated plants were compared to untreated controls and visually evaluated for injury. Plant response ratings, summarized in Table A, are based on a 0 to 10 scale where 0 is no effect and 10 is complete control.

galium = assay: Test E galium; format: in vivo, Galium aparine; details: Postemergence
Summary of the method: (§1)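 Greenhouse test: for postemergence, foliar application at 1- to 4-leaf stage; compound in non-phytotoxic solvent with surfactant. Rating is visual, relative to untreated controls, about 21 to 28 days after treatment.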

annual bluegrass = assay: Test E annual bluegrass; format: in vivo, Poa annua; details: Postemergence
Summary of the method: as §1

scentless chamomile = assay: Test E scentless chamomile; format: in vivo, Matricaria inodora; details: Preemergence
sunflower = assay: Test E sunflower; format: in vivo, Helianthus annuus; details: Postemergence
Summary of the method: as §1

kochia = assay: Test E kochia; format: in vivo, Kochia scoparia; details: Postemergence
Description: (§2) Compounds evaluated in this test were formulated in a non-phytotoxic solvent mixture which included a surfactant and applied to plants that were in the 1- to 4-leaf stage (postemergence application). A mixture of sandy loam soil and greenhouse potting mix in a 60:40 ratio was used for the postemergence test.
(§3) Plantings of these crops and weed species were adjusted to produce plants of appropriate size for the postemergence test. All plant species were grown using normal greenhouse practices. Crop and weed species include annual bluegrass (Poa annua), blackgrass (Alopecurus myosuroides), black nightshade (Solanum nigra), chickweed (Stellaria media), common poppy (Papaver rhoeas), deadnettle (Lamium amplexicaule), downy brome (Bromus tectorum), field violet (Viola arvensis), galium (Galium aparine), green foxtail (Setaria viridis), Italian ryegrass (Lolium multiflorum), jointed goatgrass (Aegilops cylindrica), kochia (Kochia scoparia), lambsquarters (Chenopodium album), littleseed canarygrass (Phalaris minor), rape (Brassica napus), redroot pigweed (Amaranthus retroflexus), Russian thistle (Salsola kali), scentless chamomile (Matricaria inodora), spring barley (Hordeum vulgare), sugar beet (Beta vulgaris), sunflower (Helianthus annuus), ivyleaf speedwell (Veronica hederaefolia), spring wheat (Triticum aestivum), winter wheat (Triticum aestivum), wild buckwheat (Polygonum convolvulus), wild mustard (Sinapis arvensis), wild oat (Avena fatua), windgrass (Apera spica-venti) and winter barley (Hordeum vulgare).
(§4) Treated plants and untreated controls were maintained in a greenhouse for approximately 21 to 28 days, after which all treated plants were compared to untreated controls and visually evaluated. […] A dash response (-) means no test result.

velvetleaf = assay: Test C postemergence velvetleaf; format: in vivo, Abutilon theophrasti; details: 0 to 100 scale, 0 no effect, 100 complete control
Description: (§5) Compounds evaluated in this test were formulated in a non-phytotoxic solvent mixture which included a surfactant and applied to plants that were grown for various periods of time before treatment (postemergence application). A mixture of sandy loam soil and greenhouse potting mix in a 60:40 ratio was used for the postemergence test.
(§6) Plantings of these crops and weed species were adjusted to produce plants of appropriate size for the postemergence test. All plant species were grown using normal greenhouse practices. Crop and weed species include arrowleaf sida (Sida rhombifolia), barnyardgrass (Echinochloa crus-galli), cocklebur (Xanthium strumarium), common ragweed (Ambrosia elatior), corn (Zea mays), cotton (Gossypium hirsutum), eastern black nightshade (Solanum ptycanthum), fall panicum (Panicum dichotomiflorum), field bindweed (Convolvulus arvensis), giant foxtail (Setaria faberii), hairy beggarticks (Bidens pilosa), ivyleaf morningglory (Ipomoea hederacea), johnsongrass (Sorghum halepense), ladysthumb smartweed (Polygonum persicaria), lambsquarters (Chenopodium album), large crabgrass (Digitaria sanguinalis), purple nutsedge (Cyperus rotundus), redroot pigweed (Amaranthus retroflexus), soybean (Glycine max), surinam grass (Brachiaria decumbens), velvetleaf (Abutilon theophrasti) and wild poinsettia (Euphorbia heterophylla).
(§7) Treated plants and untreated controls were maintained in a greenhouse for approximately 14, to 21 days, after which all treated plants were compared to untreated controls and visually evaluated. Plant response ratings, summarized in Table C, were based upon a 0 to 100 scale where 0 was no effect and 100 was complete control. A dash response (−) means no test result.

wild buckwheat = assay: Test E wild buckwheat; format: in vivo, Polygonum convolvulus; details: Postemergence
Description: as §2, §3, §4

purple nutsedge = assay: Test C postemergence purple nutsedge; format: in vivo, Cyperus rotundus; details: 0 to 100 scale, 0 no effect, 100 complete control
Description: as §5, §6, §7

wild mustard = assay: Test E wild mustard; format: in vivo, Sinapis arvensis; details: Preemergence
chickweed = assay: Test E chickweed; format: in vivo, Stellaria media; details: Postemergence
Description: as §2, §3, §4

cocklebur = assay: Test C postemergence cocklebur; format: in vivo, Xanthium strumarium; details: 0 to 100 scale, 0 no effect, 100 complete control
Description: as §5, §6, §7

[1] = Rate 250 g/ha, 0 to 100 scale (0 no effect, 100 complete control)
[2] = Rate 62 g/ha, 0 to 100 scale, 0 no effect, 100 complete control
[3] = Rate 125 g/ha, 0 to 100 scale (0 no effect, 100 complete control)
[4] = Rate 500 g/ha, 0 to 100 scale, 0 no effect, 100 complete control

| Compound | Plant response rating, Morningglory (morningglory; Postemergence, Rate 1000 g/ha) | Plant response rating, Morningglory (morningglory; Pre-emergence, Rate 2000 g/ha) | Plant response rating, Galium (galium; Rate 62 g/ha, 0 to 100 scale) | Plant response rating, Galium (galium; Rate 125 g/ha, 0 to 100 scale) | Plant response rating, Galium (galium; [1]) | Plant response rating, Annual bluegras (annual bluegrass; Rate 62 g/ha, 0 to 100 scale) | Plant response rating, Annual bluegras (annual bluegrass; Rate 125 g/ha, 0 to 100 scale) | Plant response rating, Annual bluegras (annual bluegrass; [1]) | Plant response rating, Sunflower (sunflower; Rate 62 g/ha, 0 to 100 scale) | Plant response rating, Sunflower (sunflower; Rate 125 g/ha, 0 to 100 scale) | Plant response rating, Sunflower (sunflower; [1]) | Plant response rating, Kochia (kochia; Rate 62 g/ha, 0 to 100 scale) | Plant response rating, Kochia (kochia; Rate 125 g/ha, 0 to 100 scale) | Plant response rating, Kochia (kochia; [1]) | Plant response rating, Velvetleaf (velvetleaf; Rate 140 g/ha) | Plant response rating, Velvetleaf (velvetleaf; Rate 280 g/ha) | Plant response rating, Velvetleaf (velvetleaf; Rate 560 g/ha) | Plant response rating, Velvetleaf (velvetleaf; Rate 1120 g/ha) | Plant response rating, Wild buckwheat (wild buckwheat; Rate 62 g/ha, 0 to 100 scale) | Plant response rating, Wild buckwheat (wild buckwheat; Rate 125 g/ha, 0 to 100 scale) | other results |
| --- | --- | --- | --- | --- | --- | --- | --- | --- | --- | --- | --- | --- | --- | --- | --- | --- | --- | --- | --- | --- | --- |
| Cc1ccccc1Cn1c(=O)on(C(=O)N(c2ccc(Cl)cc2)C(C)C)c1=O [Compound 136] | 9 | 0 |  |  |  |  |  |  |  |  |  |  |  |  |  |  |  |  |  |  |  |
| CCOC(=O)Cn1c(=O)on(C(=O)N(c2ccc(F)cc2)C(C)C)c1=O [Compound 128] | 0 | 0 |  |  |  |  |  |  |  |  |  |  |  |  |  |  |  |  |  |  |  |
| CCn1c(=O)on(C(=O)N(c2ccc(F)cc2)C(C)C)c1=O [Compound 107] |  |  | 5 | 30 | 30 | 20 | 5 | 50 | 10 | 20 | 30 | 5 | 20 | 15 | 5 | 60 | 70 | 75 | 0 | 0 | Plant response rating, Scentless chamo (scentless chamomile; [2]): 70; Plant response rating, Scentless chamo (scentless chamomile; [3]): 80; Plant response rating, Scentless chamo (scentless chamomile; Rate 250 g/ha, 0 to 100 scale): 90; Plant response rating, Wild buckwheat (wild buckwheat; [1]): 10; Plant response rating, Purple nutsedge (purple nutsedge; Rate 140 g/ha): 0; Plant response rating, Purple nutsedge (purple nutsedge; Rate 280 g/ha): 0; Plant response rating, Purple nutsedge (purple nutsedge; Rate 560 g/ha): 10; Plant response rating, Purple nutsedge (purple nutsedge; Rate 1120 g/ha): 10; Plant response rating, Wild mustard (wild mustard; [2]): 100; Plant response rating, Wild mustard (wild mustard; [3]): 85; Plant response rating, Wild mustard (wild mustard; Rate 250 g/ha, 0 to 100 scale): 100; Plant response rating, Chickweed (chickweed; Rate 62 g/ha, 0 to 100 scale): 10; Plant response rating, Chickweed (chickweed; Rate 125 g/ha, 0 to 100 scale): 0; Plant response rating, Chickweed (chickweed; [1]): 0; Plant response rating, Cocklebur (cocklebur; Rate 140 g/ha): 0; Plant response rating, Cocklebur (cocklebur; Rate 280 g/ha): 50 |
| CCn1c(=O)on(C(=O)N(c2ccc(F)cc2F)C(C)C)c1=O [Compound 116] |  |  | 30 | 40 | 40 | 100 | 50 | 70 | 20 | 0 | 0 | 0 | 0 | 0 | 0 | 0 | 40 | 80 | 0 | 0 | Plant response rating, Galium (galium; [4]): 70; Plant response rating, Annual bluegras (annual bluegrass; [4]): 75; Plant response rating, Sunflower (sunflower; [4]): 0; Plant response rating, Kochia (kochia; [4]): 0; Plant response rating, Wild buckwheat (wild buckwheat; [1]): 0; Plant response rating, Wild buckwheat (wild buckwheat; [4]): 0; Plant response rating, Purple nutsedge (purple nutsedge; Rate 140 g/ha): 0; Plant response rating, Purple nutsedge (purple nutsedge; Rate 280 g/ha): 0; Plant response rating, Purple nutsedge (purple nutsedge; Rate 560 g/ha): 10; Plant response rating, Purple nutsedge (purple nutsedge; Rate 1120 g/ha): 10; Plant response rating, Wild mustard (wild mustard; [3]): 75; Plant response rating, Wild mustard (wild mustard; Rate 250 g/ha, 0 to 100 scale): 85; Plant response rating, Wild mustard (wild mustard; Rate 500 g/ha, 0 to 100 scale where 0 is no effect and 100 is complete control): 65; Plant response rating, Chickweed (chickweed; Rate 62 g/ha, 0 to 100 scale): 0; Plant response rating, Chickweed (chickweed; Rate 125 g/ha, 0 to 100 scale): 0; Plant response rating, Chickweed (chickweed; [1]): 20; Plant response rating, Chickweed (chickweed; [4]): 50; Plant response rating, Cocklebur (cocklebur; Rate 140 g/ha): 0; Plant response rating, Cocklebur (cocklebur; Rate 560 g/ha): 0; Plant response rating, Cocklebur (cocklebur; Rate 1120 g/ha): 50 |
